US8841296B2, “Substituted 1, 4-dioxa-8-azaspiro[4,5]decanes useful as fungicides and a process for the preparation thereof” (Council of Scientific and Industrial Research, Anusandhan …, priority 2009, dated 2014)

Experiments:
grape downy mildew = experiment: Field experiment against grape downy mildew; assay type: in vivo, grapevine
Protocol: A field experiment was conducted on pruned grapevine, in a randomized block design with ten treatments (Table No. 3) and three replications. Two sprays were given at an interval of 6 days starting at 28 days after pruning. The plot size was ten vines per treatment/replication. The spraying was done by Knapsack sprayer using 1000 L spray volume/hectare. […] Based on the observations, percent disease incidence was worked out. The data was subjected to statistical analysis.

grape powdery mildew = experiment: Field experiment against grape powdery mildew; assay type: in vivo, grapevine; conditions: for PDI on Bunches 11 DAIIS / % Disease Control (11 DAIIS): 11 days after 2nd spray; for % Disease Control (11 DAIIS) / % Disease Control (15 DAIIS): over untreated check; for PDI on Bunches 15 DAIIS / % Disease Control (15 DAIIS): 15 days after 2nd spray
Protocol: A field experiment was conducted on pruned grapevine, in a randomized block design with ten treatments (Table No 1) and three replications. Two sprays were given at an interval of 10 days. The plot size was eight vines per treatment/replication. The spraying was done by Knapsack sprayer using 850 L spray volume/hectare. […] Based on the observations percent incidence was worked out.

Colletotrichum capsici = experiment: Growth inhibition plate assay, C. capsici; assay type: cell-based; conditions: Colletotrichum truncatum, ND = Not Detectable, read-out: Plate assay inhibition, P2 C. capsici
Pyrricularia oryzae = experiment: microbe, parasite or virus in culture; assay type: cell-based; conditions: Pyricularia oryzae, read-out: Plate assay inhibition, P5 P. oryzae, 25 ppm; ND = Not Detectable
rose powdery mildew = experiment: Field experiment against rose powdery mildew; assay type: in vivo; conditions: 20% EC @ 720 g a.i./ha, 4 days after spray
Source text: Two sprays were given at an interval of 4 days. The spraying was done by Foot operated sprayer using 1200 L spray volume/hectare. […] Based on the observations percent incidence was worked out. The data was subjected to statistical analysis.

Pythium aphanidermatum = experiment: Growth inhibition plate assay, P. aphanidermatum; assay type: cell-based; conditions: ND = Not Detectable, read-out: Plate assay inhibition, P6 P. aphanidermatum
Drechslera oryzae = experiment: Growth inhibition plate assay, D. oryzae; assay type: cell-based; conditions: Bipolaris oryzae, read-out: Plate assay inhibition, P3 D. oryzae, 25 ppm; ND = Not Detectable
Rhizoctonia solani = experiment: Growth inhibition plate assay, R. solani; assay type: cell-based; conditions: ND = Not Detectable, read-out: Plate assay inhibition, P1 R. solani
Fusarium oxysporum = experiment: Growth inhibition plate assay, F. oxysporum; assay type: cell-based; conditions: Fusarium oxysporum, ND = Not Detectable, read-out: Plate assay inhibition, P4 F. oxysporum
[1] = tested on: plant pathogenic fungi (all the test pathogens); assay type: cell-based

Q: For `CO/C=C(/C(=O)OC)c1ccccc1Oc1cc(Oc2ccccc2C#N)ncn1` [Azoxystrobin, reference compound], which “Grape Downy mildew incidence 7 DAIIS” value (grape downy mildew; 23 SC @ 230 g a.i./ha, 7 days after 2nd spray) is on record?
A: 3.32%

Q: And the “% Control (7 DAIIS)” value (grape downy mildew; 23 SC @ 230 g a.i./ha, 7 days after 2nd spray, over untreated check)?
A: 80.29%

Q: What about the “Grape Downy mildew incidence 10 DAIIS” value (grape downy mildew; 23 SC @ 230 g a.i./ha, 10 days after 2nd spray) of the same compound?
A: 2.7%

Q: And the “% Control (10 DAIIS)” value (grape downy mildew; 23 SC @ 230 g a.i./ha, 10 days after 2nd spray, over untreated check)?
A: 88.14%

Q: What about the “PDI on Bunches 11 DAIIS” value (grape powdery mildew; 25 SC @ 212 g a.i./ha) of the same compound?
A: 8.68%

Q: And the “% Disease Control (11 DAIIS)” value (grape powdery mildew; 25 SC @ 212 g a.i./ha)?
A: 70.97%

Q: What about the “PDI on Bunches 15 DAIIS” value (grape powdery mildew; 25 SC @ 212 g a.i./ha) of the same compound?
A: 5.92%

Q: What about the “% Disease Control (15 DAIIS)” value (grape powdery mildew; 25 SC @ 212 g a.i./ha) of the same compound?
A: 77.34%

Q: `Clc1cc(Br)ccc1OCC1COC2(CCN(CCc3ccccc3)CC2)O1` (stereo not shown) [Compound 2, 2-(4-bromo-2-chlorophenoxy)methyl-8-phenethyl-1,4-dioxa-8-azaspiro[4,5]decane] was tested. Which inhibition at 25 ppm (Colletotrichum capsici) did it give?
A: 90 to 100%

Q: What about the inhibition at 25 ppm (Pyrricularia oryzae) of the same compound?
A: 90 to 100%

Q: And the “Rose PM % incidence 4 DAS” value (rose powdery mildew)?
A: 36.83%

Q: What about the “Rose PM % Control” value (rose powdery mildew; over untreated check) of the same compound?
A: 28.52%

Q: And the inhibition at 25 ppm (Pythium aphanidermatum)?
A: 90 to 100%

Q: What about the inhibition at 25 ppm (Drechslera oryzae) of the same compound?
A: 90 to 100%

Q: And the inhibition at 25 ppm (Rhizoctonia solani)?
A: 90 to 100%

Q: What about the inhibition at 25 ppm (Fusarium oxysporum) of the same compound?
A: 90 to 100%

Q: And the “Grape Downy mildew incidence 7 DAIIS” value (grape downy mildew; 20% EC @ 400 g a.i./ha, 7 days after 2nd spray)?
A: comparable with standard check fungicides

Q: What about the “Grape Downy mildew incidence 7 DAIIS” value (grape downy mildew; 20% EC @ 400 g a.i./ha, 7 days after 2nd spray, listed as Cpd 2) of the same compound?
A: 4.46%

Q: And the “% Control (7 DAIIS)” value (grape downy mildew; 20% EC @ 400 g a.i./ha, 7 days after 2nd spray, over untreated check)?
A: 73.53%

Q: And the “Grape Downy mildew incidence 10 DAIIS” value (grape downy mildew; 20% EC @ 400 g a.i./ha, 10 days after 2nd spray)?
A: 7.58%

Q: What about the “% Control (10 DAIIS)” value (grape downy mildew; 20% EC @ 400 g a.i./ha, 10 days after 2nd spray, over untreated check) of the same compound?
A: 66.72%

Q: What about the “Grape Downy mildew incidence 7 DAIIS” value (grape downy mildew; 20% EC @ 800 g a.i./ha, 7 days after 2nd spray) of the same compound?
A: comparable with standard check fungicides

Q: And the “Grape Downy mildew incidence 7 DAIIS” value (grape downy mildew; 20% EC @ 800 g a.i./ha, 7 days after 2nd spray, listed as Cpd 2)?
A: 2.77%

Q: What about the “% Control (7 DAIIS)” value (grape downy mildew; 20% EC @ 800 g a.i./ha, 7 days after 2nd spray, over untreated check) of the same compound?
A: 83.56%

Q: What about the “Grape Downy mildew incidence 10 DAIIS” value (grape downy mildew; 20% EC @ 800 g a.i./ha, 10 days after 2nd spray) of the same compound?
A: at par with standard check fungicides

Q: And the “Grape Downy mildew incidence 10 DAIIS” value (grape downy mildew; 20% EC @ 800 g a.i./ha, 10 days after 2nd spray, listed as Cpd 2)?
A: 5.27%

Q: What about the “% Control (10 DAIIS)” value (grape downy mildew; 20% EC @ 800 g a.i./ha, 10 days after 2nd spray, over untreated check) of the same compound?
A: 76.86%

Q: What about the “PDI on Bunches 11 DAIIS” value (grape powdery mildew; 20% EC @ 340 g a.i./ha) of the same compound?
A: 12.96%

Q: And the “% Disease Control (11 DAIIS)” value (grape powdery mildew; 20% EC @ 340 g a.i./ha)?
A: 56.67%

Q: And the “PDI on Bunches 15 DAIIS” value (grape powdery mildew; 20% EC @ 340 g a.i./ha)?
A: 10.23%

Q: What about the “% Disease Control (15 DAIIS)” value (grape powdery mildew; 20% EC @ 340 g a.i./ha) of the same compound?
A: 60.84%

Q: And the “PDI on Bunches 11 DAIIS” value (grape powdery mildew; 20% EC @ 510 g a.i./ha)?
A: 13.6%

Q: What about the “% Disease Control (11 DAIIS)” value (grape powdery mildew; 20% EC @ 510 g a.i./ha) of the same compound?
A: 54.53%

Q: And the “PDI on Bunches 15 DAIIS” value (grape powdery mildew; 20% EC @ 510 g a.i./ha)?
A: 9.6%

Q: And the “% Disease Control (15 DAIIS)” value (grape powdery mildew; 20% EC @ 510 g a.i./ha)?
A: 63.26%

Q: And the “PDI on Bunches 11 DAIIS” value (grape powdery mildew; 20% EC @ 680 g a.i./ha)?
A: 12.48%

Q: What about the “% Disease Control (11 DAIIS)” value (grape powdery mildew; 20% EC @ 680 g a.i./ha) of the same compound?
A: 58.27%

Q: And the “PDI on Bunches 15 DAIIS” value (grape powdery mildew; 20% EC @ 680 g a.i./ha)?
A: 8.9%

Q: And the “% Disease Control (15 DAIIS)” value (grape powdery mildew; 20% EC @ 680 g a.i./ha)?
A: 65.93%

Q: What about the “inhibition against all the test pathogens” value [1] of the same compound?
A: 90-100%

Q: What about the “fungicidal activity against plant pathogenic fungi” value ([1]; result in words) of the same compound?
A: active against all pathogens

Q: Which results are given for `c1ccc(CCN2CCC3(CC2)OCC(CN2CCOCC2)O3)cc1` (stereo not shown) [Compound 3, 2-(morpholin-4-yl)methyl-8-phenethyl-1,4-dioxa-8-azaspiro[4,5]decane]?
A: inhibition at 25 ppm (Pyrricularia oryzae): 40 to 50%; inhibition at 25 ppm (Drechslera oryzae): 60 to 70%; inhibition at 25 ppm (Rhizoctonia solani): 70 to 80%; inhibition at 25 ppm (Fusarium oxysporum): 70 to 80%

Q: For `Clc1ncc(COCC2COC3(CCN(CCc4ccccc4)CC3)O2)s1` (stereo not shown) [Compound 4, 2-(2-chloro-5-thiazolyl)methoxymethyl-8-phenethyl-1,4-dioxa-8-azaspiro[4,5]decane], which inhibition at 25 ppm (Colletotrichum capsici) is on record?
A: 20 to 30%

Q: And the inhibition at 25 ppm (Pyrricularia oryzae)?
A: 30 to 40%

Q: And the inhibition at 25 ppm (Rhizoctonia solani)?
A: 20 to 30%

Q: And the inhibition at 25 ppm (Fusarium oxysporum)?
A: 30 to 40%

Q: And the “inhibition against all the test pathogens” value [1]?
A: 20-30%

Q: `Fc1ccc(Cl)cc1NCC1COC2(CCN(Cc3cnc(Cl)s3)CC2)O1` (stereo not shown) [Compound 8, N-(5-chloro-2-fluorophenyl)-N-{8-(2-chloro-5-thiazolyl)methyl-1,4-dioxa-8-aza-spiro[4,5]dec-2-yl}methanamine] was tested. Which inhibition at 25 ppm (Pythium aphanidermatum) did it give?
A: 50 to 60%

Q: And the inhibition at 25 ppm (Fusarium oxysporum)?
A: 20 to 30%

Q: Which results are given for `COc1ccc(C(=CC(=O)N2CCOCC2)c2ccc(Cl)cc2)cc1OC` [Dimethomorph, reference compound]?
A: Grape Downy mildew incidence 7 DAIIS (grape downy mildew; 50 WP @ 500 g a.i./ha, 7 days after 2nd spray): 2.39%; Grape Downy mildew incidence 10 DAIIS (grape downy mildew; 50 WP @ 500 g a.i./ha, 10 days after 2nd spray): 2.42%; % Control (7 DAIIS) (grape downy mildew; 500 g/ha, 168 h): 85.81%; % Control (10 DAIIS) (grape downy mildew; 500 g/ha, 240 h): 89.37%

Q: With `CCCCC(O)(Cn1cncn1)c1ccc(Cl)cc1Cl` (stereo not shown) [Hexaconazole, reference compound] as the compound, how does the “PDI on Bunches 11 DAIIS” value (grape powdery mildew; 5 E @ 42.50 g a.i./ha) read?
A: 8.59%

Q: What about the “% Disease Control (11 DAIIS)” value (grape powdery mildew; 5 E @ 42.50 g a.i./ha) of the same compound?
A: 71.28%

Q: And the “PDI on Bunches 15 DAIIS” value (grape powdery mildew; 5 E @ 42.50 g a.i./ha)?
A: 4.81%

Q: What about the “% Disease Control (15 DAIIS)” value (grape powdery mildew; 5 E @ 42.50 g a.i./ha) of the same compound?
A: 81.59%

Q: `CO/N=C(/C(=O)OC)c1ccccc1COc1ccccc1C` [Kresoxim methyl, reference compound] was tested. Which “PDI on Bunches 11 DAIIS” value (grape powdery mildew; 50 SC 425 g a.i./ha) did it give?
A: 5.5%

Q: And the “% Disease Control (11 DAIIS)” value (grape powdery mildew; 50 SC 425 g a.i./ha)?
A: 81.61%

Q: And the “PDI on Bunches 15 DAIIS” value (grape powdery mildew; 50 SC 425 g a.i./ha)?
A: 3.55%

Q: What about the “% Disease Control (15 DAIIS)” value (grape powdery mildew; 50 SC 425 g a.i./ha) of the same compound?
A: 86.41%
